ChEMBL document CHEMBL3507680, “University of Dundee, Gates Library screen for HepG2 cell viability”

test: Human HepG2 cell viability assay in 384 well format; format: toxicity, cell-based; parameters: dose 125 nL, time 70.5 hour; concentration not given beside the values; conditions: HepG2 cells, read-out: Inhibition

In order of rising cytotoxicity at 70.5 h:
1. COC(C)Cc1nc(-c2cnn3c(C)cc(C)nc23)no1 (centres undefined)  -97.5%
2. Cc1nc(CN2CCOCC3(CCN(c4cnccn4)CC3)C2)cs1  -82.2%
3. CC(C)OCCCN(CC(=O)N1CCNCC1)C(=O)c1cccc(Cl)c1  -18.5%
4. CCOCC1c2c(ncn2C)CCN1C(=O)c1ccoc1 (centres undefined)  -17.6%
5. N#Cc1cccc(S(=O)(=O)NC2CCN(CC(F)(F)F)C2)c1 (centres undefined)  -15.4%
6. CCc1nnc2n1CCN(C(=O)COCCc1ccccc1)C2  -14.7%
7. COCCCNC(=O)Cn1nnc(-c2cc3ccccc3o2)n1  -13.2%
8. Cc1cc2[nH]c(O)nc2cc1NCc1ccccc1  -12.7%
9. Cn1c(=O)[nH]c(=O)n2c(CC(=O)Nc3ccc(Cl)c(Cl)c3)cnc12  -12.5%
10. Cc1ccc(N2CC3(CCN(C(=O)c4ccoc4)C3)C2)nn1  -12.3%
11. CCC1C=CCN1C(=O)c1cc(COc2ccccc2OC)[nH]n1 (centres undefined)  -11.7%
12. CC1=Nc2c(c(O)nn2C(C)C)C(c2cnn(C)c2)S1 (centres undefined)  -11%
13. Cc1nnc([C@]23COC[C@H]2CN(Cc2nccs2)C3)o1  -10.3%
14. Cc1cccnc1CC(C)N(C)C(=O)c1cccs1 (centres undefined)  -10.3%
15. COc1cccc(NC(=O)NC2(c3noc(CN(C)C)n3)CCCC2)c1  -10.2%
16. CNc1ncc(C(=O)N2CCOC(C(=O)NC3CCCC3)C2)cn1 (centres undefined)  -9.73%
17. COc1ccccc1OC1CN(C(=O)C2CNCC(=O)N2)C1 (centres undefined)  -9.64%
18. Cn1cccc1C(O)CNC(=O)c1cccc(Cl)c1 (centres undefined)  -9.53%
19. O=S(=O)(C1CC1)N1CC[C@]2(C[C@H](OCC3CCOCC3)CO2)C1  -9.21%
20. CCOCC1CN(S(=O)(=O)c2cccc(C)c2)Cc2nccn2C1 (centres undefined)  -8.99%
21. Cc1cn2c(n1)CCC(NC(=O)COCCOc1ccccc1)C2 (centres undefined)  -8.88%
22. COCCNC(=O)NCc1cc(-c2cccs2)n(C2CCCC2)n1  -8.68%
23. COC(=O)c1ccc(NC(C)c2ccc3c(c2)CCC(=O)N3)nn1 (centres undefined)  -8.66%
24. COCc1cccc(C(=O)N(C)Cc2ncc(C)c(OC)c2C)c1  -8.49%
25. COC(=O)c1ccoc1CN(C)CC(=O)N(C)C  -8.41%
26. Cn1ccc(CN2CCC(c3ccccc3)CC2)cc1=O  -8.13%
27. Cn1nc(CC(C)(C)C)cc1NC(=O)c1ccc(CNC(N)=O)cc1  -7.81%
28. CCc1nc(C2CCCN2C(=O)c2nc(C)n3ccccc23)no1 (centres undefined)  -7.79%
29. Cc1cc(CN2CCCN(c3ccc(C#N)cc3)CC2)no1  -7.74%
30. CCc1ccc(CN(C)C(=O)C(c2ccccc2F)N(C)C)nc1 (centres undefined)  -7.7%
31. O=C(O)c1cc(C2CC2)nc2c(Cl)cnn12  -7.04%
32. CS(=O)(=O)N1C[C@@H]2OCC(=O)N(CC3CC3)[C@@H]2C1  -7.03%
33. CN(C)c1cc(C(F)(F)F)cc(-c2ccc(C(=O)O)cc2)n1  -6.98%
34. Cc1cc(CN(C)Cc2cc3c(cc2OC(F)F)OCO3)on1  -6.95%
35. CC(=O)c1ccc(NC(=O)N[C@H](C(=O)O)C(C)C)cc1  -6.92%
36. CCOc1ccnc(N2CCN(C(=O)c3cccc(C#N)c3)CC2)n1  -6.91%
37. CCOc1cc(CN(C)CCCC#N)ccc1OC(F)F  -6.87%
38. CNS(=O)(=O)Cc1ccc(CNc2ccc(C#N)cn2)cc1  -6.5%
39. CN(C)C(=O)C1CN(Cc2ccsc2)CCN(S(C)(=O)=O)C1 (centres undefined)  -6.36%
40. CCn1cc(NC(=O)C2CCC(=O)N2Cc2ccco2)cn1 (centres undefined)  -6.35%
41. CCc1noc(CS(=O)(=O)Cc2ccccc2Cl)n1  -6.3%
42. CCCC1C=CCN1C(=O)c1cc(COc2ccccc2)[nH]n1 (centres undefined)  -6.23%
43. OC(COCc1ccco1)CSc1nnc2ccccn12 (centres undefined)  -6.03%
44. Cn1cc(CN2Cc3cn(C)nc3C(COCC3CC3)C2)cn1 (centres undefined)  -5.92%
45. CC(C)(C(=O)NCC1CCN(Cc2ncc[nH]2)C1)c1ccccc1 (centres undefined)  -5.7%
46. CC(=O)N1CCCC(Cc2nccn2C)C1 (centres undefined)  -5.45%
47. CN1CC(=O)N(c2cccc(F)c2)CC12CCN(CCO)C2 (centres undefined)  -5.44%
48. CO[C@H]1CCN(Cc2c(C)noc2C)[C@@H]2CN(Cc3ccncc3)C[C@H]12  -5.37%
49. COc1cccc(NC(=O)NC(C)(C)c2noc(C)n2)c1  -4.79%
50. COc1ccc2c(c1)CCCC2CC(=O)NCC(=O)O (centres undefined)  -4.55%
51. O=C(CCc1cc2n(n1)CCCN(C(=O)c1ccccn1)C2)NC1CC1  -4.46%
52. COc1ccc(Cl)cc1CCNC(=O)NCc1cnn(C)c1C  -4.39%
53. Cc1cccc2c1nc(COCC(=O)O)n2-c1ccsc1  -4.32%
54. CC(=O)Nc1ccsc1C(=O)Nc1cnc2n1CCCC2  -4.21%
55. O=C(Cn1nc(-c2ccc(F)cc2)oc1=O)NCC1CCCO1 (centres undefined)  -3.49%
56. CSc1ccc(CNCCS(=O)(=O)N2CCOCC2)cc1  -3.35%
57. Cc1c(Cl)c(C(F)(F)F)nn1C(C)C(=O)NN1CCN(C)CC1 (centres undefined)  -3.23%
58. O=C(CSc1ccc2c(c1)OCCO2)NS(=O)(=O)c1cccnc1  -3.19%
59. COc1ccc(C(=O)N2CCOCC(CO)C2)cc1N1CCOCC1 (centres undefined)  -3.09%
60. Cc1nc(CN(C)C(=O)C2CC(=O)N(c3cccc(O)c3)C2)cs1 (centres undefined)  -2.8%
61. Cc1cccnc1N1CCN(C(=O)C(C)n2ccnc2C(C)C)CC1 (centres undefined)  -2.78%
62. Cc1cccc(CC2COCCN(Cc3nccn3C)C2)n1 (centres undefined)  -2.76%
63. CCO[C@@H]1CCN(C(=O)c2ccc[nH]2)[C@@H]1Cc1cnn(C)c1  -2.67%
64. CCn1c(CN(C)C)nnc1C1CCN(c2nccc(NC)n2)CC1  -2.22%
65. O=C(CN1CCNC1=O)N1CCc2nnc(-c3ccccc3)n2CC1  -1.95%
66. Cc1nc(SC2CCN(c3sccc3C#N)C2=O)oc1C (centres undefined)  -1.94%
67. Cc1ccc(OC[C@@H]2CNC[C@H](C(=O)NCC3CCCO3)C2)cn1 (some centres undefined)  -1.9%
68. Cc1noc([C@@H]2C[C@H]3OCC[C@H]3N(S(=O)(=O)c3ccccc3)C2)n1  -1.71%
69. Cc1cnc2c(S(=O)(=O)NCC3CC3)cccc2c1  -1.56%
70. Cn1cccc1C(=O)N1CCCCC1c1ccn2ccnc2n1 (centres undefined)  -1.33%
71. Cc1noc([C@]23COC[C@H]2CN(S(=O)(=O)C2CC2)C3)n1  -1.24%
72. Cc1nc(CN2CCN(C(=O)NC(C)Cn3ccnc3)CC2)cs1 (centres undefined)  -0.978%
73. Cn1nccc1CNC(=O)NC1CCN(c2ncccc2Cl)C1 (centres undefined)  -0.776%
74. Cc1cc(N2CCOCC2)ccc1NC(C)c1nc(C(C)C)no1 (centres undefined)  -0.714%
75. CCC(CO)N(Cc1ccsc1)Cc1cccc(O)c1 (centres undefined)  -0.682%
76. CCN(C(=O)NCc1ccccc1OC(F)F)C(C)c1cccnc1 (centres undefined)  0.0177%
77. c1cnc2c(c1)cc([C@@H]1CCCO1)n2CCN1CCOCC1  0.0365%
78. O=C(NCc1cc(F)ccc1F)Nc1ccn(CC(F)F)n1  0.0811%
79. Cc1ccc(CSc2ncc(Br)c(C(=O)O)n2)cc1  0.214%
80. CCS(=O)(=O)N1CCc2cc(C(=O)N(C)C)c(NCC3CC3)nc2CC1  0.785%
81. O=C(c1cccc(-n2cccn2)c1)N1CCOC(CCO)C1 (centres undefined)  1.32%
82. CCc1cnc(CN(C(C)=O)C2CCN(CCc3cnn(C)c3)C2)o1 (centres undefined)  2.5%
83. Cc1cccc(C2(C(=O)NCC3CN(C)CCO3)CC2)c1 (centres undefined)  2.72%
84. CC(C)c1cccc(S(=O)(=O)NCCCN2CCC(O)CC2)c1  3.11%
85. Cc1cc2nc(CO[C@H]3CN(C4CCCCC4)C[C@H]3F)[nH]c2cc1C  3.34%
86. O=C(CN1CCOC(c2ccc(Cl)c(Cl)c2)C1)NCc1ccco1 (centres undefined)  3.47%
87. CCn1nccc1CNC(=O)C(C)n1cc2c(n1)c(C)nn2C (centres undefined)  3.69%
88. COc1cc2nc(C)sc2cc1NC(=O)CN(C)C(C)C  4.08%
89. Cc1nc(C)n(C2CCCN(C(=O)CCCn3ccnc3)C2)n1 (centres undefined)  4.28%
90. Cc1csc(C2(NCCC(=O)N3CCOCC3)CCCC2)n1  4.83%
91. NC(=O)C1CCCN(c2ccc(CNC(=O)c3cc[nH]n3)cc2)C1 (centres undefined)  5.04%
92. CC1=N[C@@]2(CC[C@@H]3CN(C(=O)NCCc4ccccc4)C[C@@H]32)C(=O)N1  7.76%
93. COCC1c2nnn(C)c2CCN1C(=O)Cc1ccc2c(c1)OCO2 (centres undefined)  9.52%
94. CCn1c(CC2CCN(S(=O)(=O)c3cccs3)CC2)nn(C)c1=O  10.6%
95. CN(C)C(=O)N1CC2(CCOCC2)c2cc(NS(=O)(=O)C3CC3)ccc21  11.5%
96. CCNC(=O)[C@@H]1C[C@@H](NC(=O)Cc2ccccn2)CN1CCCSC  14.8%
97. Cc1ccc(C(=O)Oc2cc(=O)n3cccc(C)c3n2)cc1  15.3%
98. CC(Cn1cccn1)NC(=O)NCCc1ccsc1 (centres undefined)  15.4%
99. N#Cc1cccc(N2CCOC3(CNCCOC3)C2)n1 (centres undefined)  15.5%
100. Cc1nc(CCN(C)C(=O)C2COc3ccccc3C2)no1 (centres undefined)  17.3%
101. CC(C)[C@@H]1CN(C(=O)NCc2ccco2)C[C@H]1NS(=O)(=O)N(C)C  17.9%
102. COc1c(CNCc2ccc3c(c2)OCO3)c(C(C)C)nn1C  18.3%
103. CCn1nnc(NCc2cc(Cl)cc(Cl)c2OC)n1  18.4%
104. CC(C)CC(O)C1CCN(C(=O)c2ccc(C(C)C)[nH]c2=O)CC1 (centres undefined)  18.9%
105. Cc1nn(C)cc1C(C)Nc1ncnc2sccc12 (centres undefined)  19.1%
106. O=C(NCCc1coc(-c2ccccc2)n1)NC1CC1  20.2%
107. COc1ccc(Cn2cc(C(C)O)nn2)cc1 (centres undefined)  20.2%
108. CC(C)Cn1[nH]cc/c1=N\C(=O)CN1CCOC(Cn2cccn2)C1 (centres undefined)  21.5%
109. COc1ccc(C(C(=O)O)N2CCC(Cn3cccn3)CC2)cc1F (centres undefined)  22.7%
110. O=S(=O)(NCc1ccccc1)Nc1ccc(-n2ccnc2)cc1  23.3%
111. O=C1C(NS(=O)(=O)c2cc(F)cc(F)c2)CCN1Cc1ccccc1 (centres undefined)  23.4%
112. c1ccc2sc(CN3CCOC(Cn4cccn4)C3)nc2c1 (centres undefined)  24.8%
113. CN1C(=N)NC(=O)/C1=C\c1ccc(-c2ccc(F)cc2)o1  28.8%
114. O=C(CN1CCOC(Cn2cccn2)C1)Nc1cccnc1 (centres undefined)  31.9%
